Ten compounds from ChEMBL document CHEMBL5053521 (Bioorg Med Chem Lett, 2021) can be followed below.

In assay [1] the target is T1, Histamine H2 receptor (Homo sapiens, UniProt P25021). Description: Binding affinity to human H2R expressed in HEK293T-qs5-HA cells by flow cytometry analysis. It is filed as cell-based.
Assay [2] has as its target T1, Histamine H2 receptor. As to the kind of experiment: Agonist activity at human H2 receptor expressed in Sf9 cell membranes co-exprssing GsalphaS assessed as stimulation of [35S]GTPgammaS binding incubated for 90 mins by scintillation counting analysis. The format is functional, Membrane.
Assay [3] deals with T1, Histamine H2 receptor. Description: Agonist activity at NlucN/mini-Gi protein-fused human H2R stably expressed in HEK293T cells assessed as induction of mini-Gi protein recruitment using furimazine as substrate measured for 45 mins by luminescence assay. The format is functional, cell-based.
The target of assay [4] is T1, Histamine H2 receptor. Description: Displacement of [3H]UR-DE257 from Gsalphas-coupled human H2R expressed in Sf9 cell membranes by competitive binding assay. Details: species or system Membrane.
Assay [5] deals with T1, Histamine H2 receptor. As to the kind of experiment: Agonist activity at human H2 receptor expressed in HEK293T-ARRB1 cells assessed as stimulation of beta-arrestin 1 recruitment. The format is functional, cell-based.
For assay [6], the target named is T1, Histamine H2 receptor. As to the kind of experiment: Agonist activity at human H2 receptor expressed in HEK293T-ARRB1 cells assessed as stimulation of beta-arrestin 1 recruitment by measuring maximum efficacy. The format is functional, cell-based. To be noted: filed as agonist.
In assay [7] the target is T1, Histamine H2 receptor. As to the kind of experiment: Agonist activity at human H2 receptor expressed in HEK293T-ARRB2 cells assessed as stimulation of beta-arrestin 2 recruitment. It is filed as functional, cell-based.

T1 sequence (P25021 whole entry): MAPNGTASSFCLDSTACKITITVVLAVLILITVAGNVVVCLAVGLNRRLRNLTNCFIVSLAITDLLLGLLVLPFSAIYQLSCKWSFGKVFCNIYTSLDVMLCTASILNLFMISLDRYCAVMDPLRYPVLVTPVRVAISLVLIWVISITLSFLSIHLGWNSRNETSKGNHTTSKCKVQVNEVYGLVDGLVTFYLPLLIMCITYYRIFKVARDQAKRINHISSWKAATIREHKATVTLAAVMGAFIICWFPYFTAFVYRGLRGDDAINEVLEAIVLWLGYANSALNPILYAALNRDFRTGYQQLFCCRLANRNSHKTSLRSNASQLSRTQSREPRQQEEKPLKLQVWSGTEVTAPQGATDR

`Cc1nc(N)sc1CCCN/C(N)=N/C(=O)NCCCCCCNC(=O)CCCCCN1/C(=C/C=C/C=C/C2=[N+](CCCCS(=O)(=O)[O-])c3ccccc3C2(C)C)c2ccccc2C1(C)C`: in assay [1], binding was characterised by a dissociation constant (Kd) of 1000 nM. Besides, the EC50 in assay [2] is 562 nM; in assay [3] it was 3890 nM. This compound had a Ki in assay [4] of 251 nM.

`Cc1nc(N)sc1CCCN/C(N)=N/C(=O)NCCCCCCCCNC(=O)CCCCCNC(=O)COc1ccc(/C=C/C2=[N+]3C(=Cc4ccc(-c5cccs5)n4[B-]3(F)F)C=C2)cc1` gave a Kd in assay [1] of 81.3 nM. For the same compound, the EC50 in assay [2] is 72.4 nM. The same compound showed a Ki in assay [4] of 30.1 nM.

Regarding `CC1(C)C(/C=C/C=C/C=C2\c3ccccc3C(C)(C)N2CCCCCC(=O)NCCCCCCCCNC(=O)/N=C(\N)NCCCc2nnc(N)s2)=[N+](CCCCS(=O)(=O)[O-])c2ccccc21`, the EC50 in assay [5] is 339 nM; in assay [2], 100 nM; in assay [3], 257 nM; in assay [7], 64.6 nM. In assay [1], this compound had a Kd of 112 nM. In addition, the Emax in assay [6] was 0.55. In assay [4], this compound gave a Ki of 263 nM.

As for `CC1(C)C(/C=C/C=C/C=C2\c3ccccc3C(C)(C)N2CCCCCC(=O)NCCCCCCCCNC(=O)/N=C(\N)NCCCc2c[nH]cn2)=[N+](CCCCS(=O)(=O)[O-])c2ccccc21`, the EC50 in assay [5] was 427 nM; in assay [2] it was 120 nM; in assay [3] it was 339 nM; in assay [7] it was 115 nM. Moreover, in assay [1], the affinity, expressed as Kd, was 56.2 nM. Besides, the Emax in assay [6] is 0.25. In addition, in assay [4], the Ki was 66.1 nM.

In turn, `Cc1nc(N)sc1CCCN/C(N)=N/C(=O)NCCCCCCCCCCNC(=O)CCCCCN1/C(=C/C=C/C=C/C2=[N+](CCCCS(=O)(=O)[O-])c3ccccc3C2(C)C)c2ccccc2C1(C)C` gave a Kd in assay [1] of 229 nM. Further, the values for the EC50 in assay [2] and in assay [3] were 676 nM and 1450 nM, respectively. Further, affinity in assay [4] was put at a Ki of 95.5 nM.

`Cc1nc(N)sc1CCCN/C(N)=N/C(=O)NCCCCCCCCNC(=O)CCCCCN1/C(=C/C=C/C=C/C2=[N+](CCCCS(=O)(=O)O)c3ccccc3C2(C)C)c2cc(S(=O)(=O)[O-])ccc2C1(C)C`: the Kd in assay [1] is more than 1000 nM. In addition, the EC50 in assay [2] is 1290 nM; in assay [3], 759 nM. This compound showed a Ki in assay [4] of 263 nM.

For the compound `NCCc1c[nH]cn1`, the Emax in assay [6] was determined as 1.

In the case of `Cc1nc(N)sc1CCCN/C(N)=N/C(=O)NCCCCCCCCCCNC(=O)CCCCCN1/C(=C/C=C/C=C/C2=[N+](CCCCS(=O)(=O)O)c3ccccc3C2(C)C)c2cc(S(=O)(=O)[O-])ccc2C1(C)C`, the values for the concentration giving a half-maximal response (EC50) in assay [2] and in assay [3] were 2400 nM and 2040 nM, respectively. The Ki in assay [4] is more than 1000 nM.

For `Cc1nc(N)sc1CCCN/C(N)=N/C(=O)NCCCCCCCCNC(=O)CCCCCN1/C(=C/C=C/C=C/C2=[N+](CCCCS(=O)(=O)[O-])c3ccccc3C2(C)C)c2ccccc2C1(C)C`, the EC50 is 617 nM in assay [5], 339 nM in assay [2], 1100 nM in assay [3] and 129 nM in assay [7]. This compound gave a Kd in assay [1] of 70.8 nM. Besides, in assay [6], the Emax was found to be 0.09. In assay [4], this compound gave a Ki of 562 nM.

As to `Cc1nc(N)sc1CCCN/C(N)=N/C(=O)NCCCCCCNC(=O)CCCCCN1/C(=C/C=C/C=C/C2=[N+](C)c3ccccc3C2(C)C)c2ccccc2C1(C)C`, the EC50 in assay [5] is 513 nM; in assay [2] it was 186 nM; in assay [3], 501 nM; in assay [7], 191 nM. Besides, the Kd in assay [1] is 33 nM. Also, the Emax in assay [6] stood at 0.57. This compound also gave a Ki in assay [4] of 21.9 nM.
